Columns and labels:
[1] = system: HT-22 cells treated with Aβ42; assay: Cell viability (MTT) on beta-amyloid toxicity, Aβ42; type: cell-based, rat; details: HT-22, Aβ42 1 μM pre-treated with compound, 24 hours, untreated cells = 100%, FIG. 8 (b)
Protocol: (§1) In order to determine the cell survival rate of a compound according to the present invention on beta-amyloid toxicity, the following example was performed.
(§2) In order to obtain beta-amyloid aggregates, a beta-amyloid stock solution was prepared. The beta-amyloid stock solutions were prepared in a DMSO solution such that Aβ40 or Aβ42 might have a concentration of 5 mM and 2.5 mM, respectively, and diluted in distilled water by 10 times to prepare Aβ40 and Aβ42 at a final concentration of 500 μM and 250 μM, respectively. Distilled water added to each solution to culture a 10 times diluted beta-amyloid at 37° C. for 7 to 10 days. Subsequently, compounds of chemical formula 1a to 1e according to the present invention or distilled water were again added into each beta-amyloid to obtain 10-times diluted solutions, and then it was cultured at 37° C. for 7 days. Distilled water was used as a control group instead of the compound. […] The cytotoxicity of the reaction solutions on 0th, 3rd, and 7th days after addition of distilled water or the compound was measured using the following cell line.
(§3) HT-22, a neuronal cell line of a rat, was cultured in DMEM (Dulbecco's Modified Eagle's Medium) supplemented with 10% FBS (Fetal Bovine Serum) and 1% penicillin/streptomycin in an incubator of 37° C. and 5% CO2. […] 18 hours later, the optical absorption was determined at 570 nm by a microplate reader. […]

[2] = molecular target: T1, beta-amyloid 40 aggregate (Homo sapiens, UniProt P05067); assay: Beta-amyloid fibril disaggregation activity by electronic microscope, Aβ40; type: biochemical; details: Aβ40 50 μM, compound 20 mM, 3rd and 7th days, FIG. 6
T1 construct: beta-amyloids 40 and 42 consisting of 40 and 42 amino acids
Protocol: (§4) In order to measure accumulated beta-amyloid disaggregation activity of a compound according to the present invention, the following experiment was performed using electronic microscope.
(§5) A beta-amyloid stock solution was prepared such that Aβ40 or Aβ42 might have a concentration of 5 mM and 2.5 mM, respectively, and diluted in distilled water by 10 times to prepare Aβ40 and Aβ42 at a final concentration of 500 μM and 250 μM, respectively. It was cultured at 37° C. for 7 to 10 days to prepare a sufficient amount of beta-amyloid aggregate. Subsequently, compounds of chemical formula 1a to 1e according to the present invention or distilled water were again added into each accumulated beta-amyloid to obtain 10-times diluted solutions, and then it was cultured at 37° C. for 7 days. Distilled water was used as a control group. The final concentration of the compound was 20 mM, and the final concentrations of beta-amyloid Aβ40 or Aβ42 were 50 μM and 25 μM, respectively. Subsequently, a compound of chemical formula 1a was added, and then the mixture was cultured at 37° C. for 7 days. From each of the reaction solutions on 0th, 3rd, and 7th days after addition of distilled water or the compound, the accumulations and disaggregation degrees of accumulated beta-amyloid were observed using analytical transmission electron microscope. […]

[3] = molecular target: T2, Aβ42 fibril (Homo sapiens, UniProt P05067); assay: Accumulated beta-amyloid disaggregation activity by thioflavin T (ThT) fluorescence intensity, Aβ42; type: biochemical; details: Aβ42 25 μM, compound 20 mM
T2 construct: beta-amyloids 40 and 42 consisting of 40 and 42 amino acids
Protocol: (§6) In order to measure the disaggregation activity of the beta-amyloid aggregate of a compound according to the present invention, the following experiment was performed using thioflavin T (ThT) fluorescence intensity.
(§7) Thioflavin T (ThT) is well mixed with fibril which is a beta-amyloid aggregate in a solution and tends to increase the fluorescence intensity as the concentration of fibril increases.
(§8) For aggregation of beta-amyloid, a beta-amyloid stock solution was prepared. The beta-amyloid stock solutions were prepared in a DMSO solution such that Aβ40 or Aβ42 might have a concentration of 5 mM and 2.5 mM, respectively, and diluted in distilled water by 10 times to prepare Aβ40 and Aβ42 at a final concentration of 500 μM and 250 μM, respectively. It was cultured at 37° C. for 7 to 10 days to prepare a sufficient amount of beta-amyloid aggregate. Subsequently, compounds of chemical formula 1a to 1e according to the present invention or distilled water were again added into each accumulated beta-amyloid to obtain 10-times diluted solutions, and then they were cultured at 37° C. for 7 days. Distilled water was used as a control group. The final concentration of the compound was 20 mM, and the final concentrations of beta-amyloid Aβ40 or Aβ42 were 50 μM and 25 μM, respectively. After distilled water or the compound was added, 25 μl of each reaction solution on 0th, 3rd, and 7th day was aliquoted into each well, into which was added 75 μl of thioflavin T (ThT) to have thioflavin T (ThT) at a concentration of 5 μM. It was cultured for additional 15 minutes, and then the fluorescence intensity of a half well 96 fluorescence microplate was measured by Envision 2103 multilabel reader, Perkin-Elmer. During the measurement of fluorescence intensity, the wavelengths of excitation and emission were 450 nm and 485 nm, respectively and the counting time was 0.5 sec. […]

[4] = system: HT-22 cells treated with Aβ40; assay: Cell viability (MTT) on beta-amyloid toxicity, Aβ40; type: cell-based, rat; details: HT-22, Aβ40 2 μM pre-treated with compound, 24 hours, untreated cells = 100%, FIG. 8 (a)
Protocol: as §1, §2, §3

[5] = system: HT-22 cells; assay: Cytotoxicity of the compound alone (MTT); type: cell-based, rat; details: HT-22, without any treatment of beta-amyloid, untreated cells = 100%
[6] = molecular target: T3, accumulated Aβ42 (Homo sapiens, UniProt P05067); assay: Beta-amyloid fibril disaggregation activity by SDS-PAGE, Aβ42; type: biochemical; details: Aβ42 25 μM, compound 20 mM, 3rd and 7th day, photo-induced cross-linking, silver staining
T3 construct: beta-amyloids 40 and 42 consisting of 40 and 42 amino acids
Protocol: (§9) In order to measure the accumulated beta-amyloid disaggregation activity of a compound according to the present invention, the following experiment was performed using SDS-PAGE.
(§10) When peptides or proteins are subjected to electrophoresis on an SDS gel, the secondary structures of the proteins are broken. Thus, it is necessary to cross-link the proteins and immobilize their structures. It is achieved by a photo-induced cross-linking such that the structure of accumulated beta-amyloid may not be dismissed during electrophoresis on SDS gel. Specifically, a beta-amyloid stock solution was prepared in a DMSO solution such that Aβ40 or Aβ42 may have a concentration of 5 mM or 2.5 mM, and was […] by 10 times using distilled water to prepare Aβ40 and Aβ42 at a concentration of 500 μM and 250 μM, respectively. It was cultured at 37° C. for 7 to 10 days to prepare a sufficient amount of beta-amyloid aggregate. Subsequently, compounds of chemical formula 1a to 1e according to the present invention or distilled water were again added into each accumulated beta-amyloid to obtain 10-times diluted solutions, and then they were cultured at 37° C. for 7 days. Distilled water was used as a control group. The final concentration of the compound was 20 mM, and the final concentrations of beta-amyloid Aβ40 or Aβ42 were 50 μM and 25 μM, respectively. […]

[7] = molecular target: T4, Aβ40 fibril (Homo sapiens, UniProt P05067); assay: Accumulated beta-amyloid disaggregation activity by thioflavin T (ThT) fluorescence intensity, Aβ40; type: biochemical; details: Aβ40 50 μM, compound 20 mM
T4 construct: beta-amyloids 40 and 42 consisting of 40 and 42 amino acids
Protocol: as §6, §7, §8

[8] = molecular target: T5, beta-amyloid 42 aggregate (Homo sapiens, UniProt P05067); assay: Beta-amyloid fibril disaggregation activity by electronic microscope, Aβ42; type: biochemical; details: Aβ42 25 μM, compound 20 mM, 3rd and 7th days, FIG. 7
T5 construct: beta-amyloids 40 and 42 consisting of 40 and 42 amino acids
Protocol: as §4, §5

[9] = molecular target: T6, accumulated Aβ40 (Homo sapiens, UniProt P05067); assay: Beta-amyloid fibril disaggregation activity by SDS-PAGE, Aβ40; type: biochemical; details: Aβ40 50 μM, compound 20 mM, 3rd and 7th day, photo-induced cross-linking, silver staining
T6 construct: beta-amyloids 40 and 42 consisting of 40 and 42 amino acids
Protocol: as §9, §10

[10] = molecular target: T7, Aβ40 (Homo sapiens, UniProt P05067); assay: Beta-amyloid accumulation inhibitory activity by thioflavin T (ThT) fluorescence intensity; type: biochemical; details: Aβ40 50 μM, compound 20 mM (test compound: chemical formula 1a), 37° C., 0th to 7th day, FIG. 1
T7 construct: beta-amyloids 40 and 42 consisting of 40 and 42 amino acids
Protocol: In order to measure the beta-amyloid accumulation inhibitory activity of a compound according to the present invention, the following experiment was performed using thioflavin T (ThT) fluorescence intensity.
Thioflavin T (ThT) is well mixed with fibril which is a beta-amyloid aggregate in a solution and tends to increase the shifted fluorescence intensity as the concentration of fibril increases.
A solution was prepared in a DMSO solution such that Aβ40 might have a concentration of 5 mM, and diluted in a compound of chemical formula 1a by 100 times to prepare Aβ40 at a final concentration of 50 μM. The concentration of the compound was 20 mM. Tramiprosate was used as a control group. Tramiprosate is a compound known to treat Alzheimer's disease and related diseases by inhibiting the accumulation of beta-amyloid (F. Gervais, J. et al. (2007)). Subsequently, it was cultured at 37° C. for 7 days. […] It was cultured for additional 15 minutes, and then the fluorescence intensity of a half well 96 fluorescence microplate was measured by Envision 2103 multilabel reader, Perkin-Elmer. During the measurement of fluorescence intensity, the wavelengths of excitation and emission were 450 nm and 485 nm, respectively and the counting time was 0.5 sec.

T4 sequence (P05067 672-711 limits assumed): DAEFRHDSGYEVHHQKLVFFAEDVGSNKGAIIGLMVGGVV
T2 sequence (P05067 672-713 limits assumed): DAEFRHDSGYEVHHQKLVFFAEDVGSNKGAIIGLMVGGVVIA
T1 sequence (P05067 672-711 limits assumed): as the sequence (P05067 672-711 limits assumed) above
T7 sequence (P05067 672-711 limits assumed): as above
T6 sequence (P05067 672-711 limits assumed): as above
T3 sequence (P05067 672-713 limits assumed): as the sequence (P05067 672-713 limits assumed) above
T5 sequence (P05067 672-713 limits assumed): as above

## O=S(=O)(O)CCCN1CCN(CCO)CC1 [chemical formula 1a]
[1]
  cell viability: ≥ 95%
[2]
  beta-amyloid fibrils in transmission electron microscope images: no beta-amyloid fibrils appeared on 3rd and 7th days
[3]; 0th, 3rd, 7th day, FIG. 2 (b)
  course of ThT fluorescence intensity over time: increased over time
[4]
  cell viability: ≥ 95%
[5]
  cell viability, compound only: ≥ 95%
[6]
  disaggregation of accumulated beta-amyloid into monomers (SDS-PAGE band near 3.5 kD): disaggregated into monomers
[7]; 0th, 3rd, 7th day, FIG. 2 (a)
  course of ThT fluorescence intensity over time: increased over time
[8]
  beta-amyloid fibrils in transmission electron microscope images: no beta-amyloid fibrils appeared on 3rd and 7th days
[9]
  disaggregation of accumulated beta-amyloid into monomers (SDS-PAGE band near 3.5 kD): disaggregated into monomers

## O=S(=O)(O)CC(O)CN1CCN(CCO)CC1 (centres unmarked) [chemical formula 2, HEPPSO]
[3]
  disaggregation activity to the beta-amyloid aggregate (ThT): does not exhibit any disaggregation activity
[3]; 37° C., up to 7 days
  ThT fluorescence intensity compared to initially prepared aggregates (prefibrils): increased
[7]
  disaggregation activity to the beta-amyloid aggregate (ThT): does not exhibit any disaggregation activity
[7]; 37° C., up to 7 days
  ThT fluorescence intensity compared to initially prepared aggregates (prefibrils): increased

## NCCCS(=O)(=O)O [tramiprosate, Tramiprosate]
[10]
  increase of ThT fluorescence intensity: about 3.5 times

From US8536178B2, “Pharmaceutical composition for preventing or treating diseases associated with beta-amyloid accumulation containing morpholin or piperazine based compounds having SO3H or COOH as active ingredient” (Korea Institute of Science and Technology, priority 2009, dated 2013)
